In US9695219B2, “Polypeptide having antibacterial activity and angiogenesis-inducing activity and wound-healing drug containing said polypeptide” (priority 2009, dated 2017):
Converted amounts (≈) assume the structure as drawn. Like-named read-outs stand apart in the source and are kept apart here. Where no end group is shown, it is not given here.

Assays:
[1] = test system: human vascular endothelial cells and fibroblast cells; assay type: cell-based; settings: polypeptide 10 μg/mL, Day 11 of culture
Method: Using AG30-5C as a positive control, the angiogenesis-inducing activity of SR-1 and SR-2 was measured. More concretely, using an angiogenesis kit (Angiogenesis Kit, KZ-1000, KURABO […] LTD.), the ability of the polypeptides to form lumina was evaluated. As a negative control, polypeptide-free group (Control) was used.
Each polypeptide was added to a special medium for angiogenesis (KURABO […] LTD., KZ-1500) such that the concentration thereof was 10 μg/mL. Cells were cultured at 37° C. under 5% CO2 in a 24-well plate using the special media to which the polypeptide was added. The medium was replaced with a medium containing the same polypeptide on Day 4, Day 7 and Day 9 of culture. On Day 11 from the beginning of the culture, the medium was removed and staining was performed using a kit for staining lumina (for CD31 antibody staining) according to the following procedure.
The primary antibody (mouse anti-human CD31 antibody) was 4000-fold diluted with a blocking solution (Dulbecco's phosphate buffered saline (PBS(−)) containing 1% BSA). To each well, 0.5 mL of this primary antibody solution was added, and the plate was incubated for 60 minutes at 37° C. After the completion of the incubation, each well was washed totally 3 times with 1 mL of the blocking solution.
Then, 0.5 mL of a secondary antibody solution (goat anti-mouse IgG/alkaline phosphatase conjugate) 500-fold diluted with the blocking solution was added to each well. The plate was incubated for 60 minutes at 37° C., and thereafter each well was washed 3 times with 1 mL of distilled water. During that period, 2 tablets of BCIP/NBT were dissolved into distilled water, and the obtained solution was filtered through a filter having a pore size of 0.2 μm to prepare a substrate solution. To each well, 0.5 mL of the prepared BCIP/NBT substrate solution was added, and the plate was incubated at 37° C. until the lumina turned to deep purple (typically for 5-10 minutes). After the completion of the incubation, each well was washed 3 times with 1 mL of distilled water. After washing, the washing solution was removed by aspiration, and the plate was left to stand and dry naturally. After drying, photographs of each well were taken under a microscope.
Each of the obtained images was quantified using an angiogenesis quantification software. Computer analysis was carried out on various parameters. And, on the basis of its scale, the lengths of formed lumina observed in each visual field were measured, and the effect of adding the polypeptides compared with Control was evaluated.

[2] = test system: MSSA (clinical strain 1); assay: microbe, parasite or virus in culture; assay type: cell-based, Staphylococcus aureus; settings: Staphylococcus aureus, MSSA; 37° C. for 20 hours; tested twice, first/second value where not matched
Method: (§1) Further, with respect to not only the above-described strains but also various other strains, the “minimum inhibitory concentration (MIC)” was measured as follows. MIC is the lowest concentration of an agent that may inhibit the growth of a bacterium. MIC is used as a parameter for the efficacy of an antibacterial agent, for the strength of bacterial sensitivity, or the like. The bacteria can grow (proliferate) when the concentration is not higher than MIC, and cannot grow when the concentration is higher than MIC. Its measurement is carried out according to a method defined as a standard method by Japanese Society of Chemotherapy or CLINICAL AND LABORATORY […] (CLSI), but, in this Example, its measurement was carried out by a broth microdilution method in accordance with “M100-S17/M7-A7” (Performance Standards for Antimicrobial Susceptibility Testing; Seventeenth Informational Supplement, Vol. 27 No. 1) published by CLSI on January, 2007. That is, sensitivity test of agents was carried out using a microtiter plate or test tubes.
(§2) The bacteria were cultured in liquid media for 4 to 6 hours, and thereafter absorbances at A600 were measured. Bacterial suspensions were diluted with Mueller-Hinton broth (MHB) according to McFarland #0.5. Each strain was added so as to attain about 10^5 CFU/ml (final concentration). Each peptide was prepared to an optional concentration, and the solutions were serially diluted from the concentration. The polypeptide at each concentration stage was added to a microplate or test tubes, and the bacterial suspension was added thereto. Chloramphenicol, amphotericin B, ciprofloxacin, meropenem (MEPM), ciprofloxacin (CPFX), tobramycin (TOB) and oxacillin (OX) were used as positive controls. The plate was incubated at 37° C. for 20 hours, and the lowest concentration where bacterial growth was inhibited was regarded as the minimum inhibitory concentration.

[3] = test system: MRSA (clinical strain 2); assay: microbe, parasite or virus in culture; assay type: cell-based, Staphylococcus aureus; settings: 37° C. for 20 hours, tested twice, first/second value where not matched
Method: as §1, §2

[4] = test system: MSSA (clinical strain 2); assay: microbe, parasite or virus in culture; assay type: cell-based, Staphylococcus aureus; settings: 37° C. for 20 hours, tested twice, first/second value where not matched
Method: as §1, §2

[5] = test system: Pseudomonas aeruginosa (clinical strain 9); assay: MIC measurement, broth microdilution; assay type: cell-based; settings: Pseudomonas aeruginosa; 37° C. for 20 hours; tested twice, first/second value where not matched
[6] = test system: Pseudomonas aeruginosa (clinical strain 12); assay: MIC measurement, broth microdilution; assay type: cell-based; settings: Pseudomonas aeruginosa; 37° C. for 20 hours; tested twice, first/second value where not matched
[7] = test system: Staphylococcus aureus ATCC29213; assay: Antibacterial activity, ATP assay (BacTiter-Glo); assay type: cell-based
Method: (§3) The antibacterial activity of the polypeptides was measured using an ATP assay method. Using BacTiter-Glo Microbial Cell Viability Assay kit available from PROMEGA, the antibacterial activity of the peptides was evaluated from the viability of bacteria. […] With respect to the strains, Staphylococcus aureus ATCC29213 (S. aureus ATCC29213) as Gram-positive bacteria, or, alternatively, Pseudomonas aeruginosa (P. aeruginosa ATCC27853) as Gram-negative bacteria, was used. The bacteria were cultured in media for 3 to 4 hours, and thereafter absorbances at A600 were measured. Bacterial suspensions were diluted with Mueller-Hinton broth (MHB) according to McFarland #0.5. […] A solution to which the peptides were not added was considered as a negative control, and a solution to which tobramycin (TOB) was added was considered as a positive control. The plate was incubated at 37° C. for 3 hours, and the amount of ATP in the culture media was measured. Relative values were calculated by comparison with the negative control, and these values were regarded as the viability. The antibacterial activity of each of SR-08 and SR-07 polypeptides was measured using an ATP assay method. That is, using BacTiter-Glo Microbial Cell Viability Assay kit available from PROMEGA, the antibacterial activity of the peptides was evaluated from the viability of bacteria. […] As controls, tobramycin (TOB), oxacillin (OX) and meropenem (MEPM) were used at the concentrations as respectively shown in Table 6 below. With respect to the strains, Escherichia coli: ATCC 25922 (Escherichia coli ATCC 25922), Pseudomonas aeruginosa: ATCC 27853 (Pseudomonas aeruginosa ATCC 27853), Staphylococcus aureus: ATCC29213 (Staphylococcus aureus ATCC29213), Klebsiella pneumoniae: JCM 1662 (Klebsiella pneumoniae JCM 1662), enterobacteria (1): […] JCM 1235 (Enterobacter aerogenes JCM 1235), were used. The bacteria were cultured in media for 3 to 4 hours, and thereafter absorbances at A600 were measured. Bacterial suspensions were diluted with Mueller-Hinton broth (MHB) according to McFarland #0.5. […] The plate was incubated at 37° C. for 3 hours, and the amount of ATP in the culture media was measured. Relative values were calculated by comparison with the negative control, and these values were regarded as the viability.

[8] = test system: Pseudomonas aeruginosa ATCC 27853; assay: Antibacterial activity, ATP assay (BacTiter-Glo); assay type: cell-based
Method: as §3

[9] = test system: Pseudomonas aeruginosa (clinical strain 8); assay: MIC measurement, broth microdilution; assay type: cell-based; settings: Pseudomonas aeruginosa; 37° C. for 20 hours; tested twice, first/second value where not matched
[10] = test system: Pseudomonas aeruginosa (clinical strain 6); assay: MIC measurement, broth microdilution; assay type: cell-based; settings: Pseudomonas aeruginosa; 37° C. for 20 hours; tested twice, first/second value where not matched
[11] = test system: Enterobacter aerogenes JCM 1235; assay: Antibacterial activity, ATP assay (BacTiter-Glo); assay type: cell-based
Method: (§4) The antibacterial activity of each of SR-08 and SR-07 polypeptides was measured using an ATP assay method. That is, using BacTiter-Glo Microbial Cell Viability Assay kit available from PROMEGA, the antibacterial activity of the peptides was evaluated from the viability of bacteria. In other words, ATP amount in viable bacteria in cases where the concentration of the peptides was 10 μg/mL was measured using a microtiter plate or test tubes. As controls, tobramycin (TOB), oxacillin (OX) and meropenem (MEPM) were used at the concentrations as respectively shown in Table 6 below.
(§5) With respect to the strains, Escherichia coli: ATCC 25922 (Escherichia coli ATCC 25922), Pseudomonas aeruginosa: ATCC 27853 (Pseudomonas aeruginosa ATCC 27853), Staphylococcus aureus: ATCC29213 (Staphylococcus aureus ATCC29213), Klebsiella pneumoniae: JCM 1662 (Klebsiella pneumoniae JCM 1662), enterobacteria (1): JCM 1232 (Enterobacter cloacae JCM 1232), and enterobacteria (2): JCM 1235 (Enterobacter aerogenes JCM 1235), were used.
(§6) The bacteria were cultured in media for 3 to 4 hours, and thereafter absorbances at A600 were measured. Bacterial suspensions were diluted with Mueller-Hinton broth (MHB) according to McFarland #0.5. Each strain was added so as to attain about 0.5-1×10^5 CFU/mL (final concentration) in terms of Escherichia coli. Each peptide was prepared and added to a microplate or test tubes so as to attain a final concentration of 10 μg/mL, and the bacterial suspension was added thereto. The plate was incubated at 37° C. for 3 hours, and the amount of ATP in the culture media was measured. Relative values were calculated by comparison with the negative control, and these values were regarded as the viability.

[12] = test system: Pseudomonas aeruginosa (clinical strain 1); assay: microbe, parasite or virus in culture; assay type: cell-based; settings: Pseudomonas aeruginosa; 37° C. for 20 hours; tested twice, first/second value where not matched
[13] = test system: Escherichia coli ATCC 25922; assay: Antibacterial activity, ATP assay (BacTiter-Glo); assay type: cell-based
Method: as §4, §5, §6

[14] = test system: Klebsiella pneumoniae JCM 1662; assay: Antibacterial activity, ATP assay (BacTiter-Glo); assay type: cell-based
Method: as §4, §5, §6

[15] = test system: Enterobacter cloacae JCM 1232; assay: Antibacterial activity, ATP assay (BacTiter-Glo); assay type: cell-based
Method: as §4, §5, §6

[16] = test system: Staphylococcus epidermidis; assay: MIC measurement, broth microdilution; assay type: cell-based; settings: Staphylococcus epidermidis; 37° C. for 20 hours; tested twice, first/second value where not matched
Method: as §1, §2

[17] = test system: MRSA (clinical strain 1); assay: microbe, parasite or virus in culture; assay type: cell-based; settings: Staphylococcus aureus, 37° C. for 20 hours, tested twice, first/second value where not matched
Method: as §1, §2

[18] = Table 5, peptides 10 μg/mL, 37° C. for 3 hours, ATP amount relative to negative control
[19] = Table 7, mean values, peptides 10 μg/mL, TOB 1.0, OX 1.0, MEPM 0.5 μg/mL, 37° C. 3 hours, relative to negative control
[20] = Table 7, mean values, peptides 10 μg/mL, TOB 4.0, OX 4.0, MEPM 0.5 μg/mL, 37° C. 3 hours, relative to negative control

Compound | The Length of Lumina (Percentage when taking Control as 100) ([1]; Table 3) [%] | The Length of Lumina (Percentage when taking Control as 100) ([1]; Table 4) [%] | MIC [2] [µg/mL] | MIC [5] [µg/mL] | MIC [6] [µg/mL] | MIC [9] [µg/mL] | MIC [10] [µg/mL] | MIC [12] [µg/mL] | MIC [16] [µg/mL] | MIC [17] [µg/mL] | also measured
MLKLIFLHRLKRMRKRLKRKLRFWHRKRYK [AG30-5C] | 119.1 | 165.7 |  |  |  |  |  |  |  |  | 
ELRFLHRLKRRLRKRLKRKLR-NH2 [SR-2] | 124.6 |  |  |  |  |  |  |  |  |  | 
NC[C@H]1O[C@H](O[C@H]2[C@H](O)[C@@H](O[C@H]3O[C@H](CO)[C@@H](O)[C@H](N)[C@H]3O)[C@H](N)C[C@@H]2N)[C@H](N)C[C@@H]1O [TOB, tobramycin] |  |  | < 4 | < 4 | < 4 | < 4 | < 4 | > 16 | 0.12 to 1 (≈ 0.257 to 2.14 µM) | > 16 | MIC ([3]; Staphylococcus aureus, MRSA): > 16 µg/mL; MIC ([4]; Staphylococcus aureus, MSSA): < 4 µg/mL; Viability (%) Staphylococcus aureus [7, 18]: 3.5%; Viability, Staphylococcus aureus ([7]; Table 7, mean values, peptides 10 μg/mL, TOB 1.0, OX 0.125, MEPM 0.5 μg/mL, 37° C. 3 hours, relative to negative control): 3.4; Viability (%) Pseudomonas aeruginosa [8, 18]: 1.8%; Viability, Pseudomonas aeruginosa [8, 19]: 1.5; Viability, Enterobacteria (2) [11, 20]: 0.7; Viability, Escherichia coli [13, 19]: 4.1; Viability, Klebsiella pneumoniae [14, 20]: 4.6; Viability, Enterobacteria (1) [15, 20]: 2.9
C[C@@H](O)[C@H]1C(=O)N2C(C(=O)O)=C(S[C@@H]3CN[C@H](C(=O)N(C)C)C3)[C@H](C)[C@H]12 [MEPM, meropenem] |  |  | < 4 | < 4 | < 4 | < 4 | 8 (≈ 20.9 µM) | < 4 | 0.03 to 0.12 (≈ 0.0782 to 0.313 µM) | < 4 | MIC, MRSA (clinical strain 2) [3]: 8/16; MIC, MSSA (clinical strain 2) [4]: 4/8; viability at 0.5 µg/mL ([7]; Staphylococcus aureus, ATCC29213, 3 h, read-out: Viability, Staphylococcus aureus): 89.8%; viability at 0.5 µg/mL ([8]; Pseudomonas aeruginosa, ATCC27853, 3 h, read-out: Viability, Pseudomonas aeruginosa): 19.3%; viability at 0.5 µg/mL ([11]; Klebsiella aerogenes, JCM1235, 3 h, read-out: Viability, Enterobacteria (2)): 1.7%; viability at 0.5 µg/mL ([13]; Escherichia coli, ATCC25922, 3 h, read-out: Viability, Escherichia coli): 12.4%; viability at 0.5 µg/mL ([14]; Klebsiella pneumoniae, JCM1662, 3 h, read-out: Viability, Klebsiella pneumoniae): 9.2%; viability at 0.5 µg/mL ([15]; Enterobacter cloacae, JCM1232, 3 h, read-out: Viability, Enterobacteria (1)): 3.8%
MLKLIFLHRLKRMRKRLKRK [SR-1] | 124.3 |  |  |  |  |  |  |  |  |  | 
ARLDVASEFRKKWNKWALSR-amide (ARLDVASEFRKKWNKWALSR-NH2; listed as Homo sapiens) [PAMP] |  | 124.6 |  |  |  |  |  |  |  |  | 
